Measurements reported in publication PMC8748404 (Angewandte Chemie (International ed. in English), 2021).

What was measured:
[1] = test system: PB1-BD2, PB1-BD4, PB1-BD5, BRD7 and BRD9; experiment: concurrent screening against five bromodomain proteins; assay type: binding; details: five bromodomain proteins screened concurrently
BRD7/9 = experiment: concurrent DNA-based displacement screening, DNA-bromosporine probe; assay type: binding; details: screen of 1000 compounds, TargetMol Bioactive Compound Library
HaloTag-eDHFR = HaloTag-eDHFR (Escherichia coli, UniProt P0ABQ4); experiment: DNA-based ligand displacement screen of LOPAC library with DNA-linked TMP probe; assay type: binding, E. coli; details: LOPAC1280 screen against HaloTag-eDHFR
human DHFR = target: T1, human DHFR (Homo sapiens, UniProt P00374); experiment: inhibition of human DHFR; assay type: biochemical
T1 sequence (P00374 1-187): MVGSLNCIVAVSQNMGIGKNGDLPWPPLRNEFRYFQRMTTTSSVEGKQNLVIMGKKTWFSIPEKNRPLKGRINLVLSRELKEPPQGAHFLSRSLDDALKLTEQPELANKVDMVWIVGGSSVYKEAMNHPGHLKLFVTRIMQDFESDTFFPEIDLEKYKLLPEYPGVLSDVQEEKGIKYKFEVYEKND

[2] = target: E. coli dihydrofolate reductase (eDHFR) (Escherichia coli, UniProt P0ABQ4); experiment: inhibition assays of eDHFR; assay type: biochemical; details: eDHFR inhibition assay
eDHFR = eDHFR (Escherichia coli, UniProt P0ABQ4); experiment: FP assay, displacement of fluorescein-labeled methotrexate; assay type: binding, E. coli; details: displacement of fluorescein-labeled MTX from eDHFR
PB1-BD2/4/5 = experiment: DNA-based ligand displacement assay, IC50 determination of hit compounds; assay type: binding

HaloTag-eDHFR, sequence (P0ABQ4 whole entry): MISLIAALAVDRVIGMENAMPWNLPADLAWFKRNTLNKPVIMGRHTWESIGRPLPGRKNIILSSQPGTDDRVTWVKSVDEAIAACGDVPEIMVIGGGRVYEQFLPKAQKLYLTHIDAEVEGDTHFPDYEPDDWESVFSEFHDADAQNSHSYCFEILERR
eDHFR, sequence (P0ABQ4 whole entry): as above
E. coli dihydrofolate reductase (eDHFR), sequence (P0ABQ4 whole entry): as above

SMILES	selectivity in concurrent screen [1]	displacement of DNA-bromosporine probe (BRD7/9)	recovery of DNA-linked probe (HaloTag-eDHFR)	inhibition of human DHFR (human DHFR)	Ki [2]	IC50 (eDHFR)	binding to respective bromodomains (IC50 determination) (PB1-BD2/4/5)
CN1C(=O)c2sccc2N(C)c2nc(Nc3ccc(S(N)(=O)=O)cc3)ncc21 [XMU-MP-1]	selectivity towards BRD7/9 over PB1-BD2/4/5	significantly displaced	–	–	–	–	–
CN(CCOc1ccc(C[C@H](Nc2ccccc2C(=O)c2ccccc2)C(=O)O)cc1)c1ccccn1 [GW1929]	–	–	low recovery	modest inhibition	0.41 µM	7.9 µM	–
Cc1cc(C)c(Nc2ccnc(Nc3ccc(C#N)cc3)n2)c(C)c1 [dapivirine]	selectivity for PB1-BD4	–	–	–	–	–	potent binding
